The values that follow come from US20240293404A1, “SALT AND CRYSTAL FORMS OF AN EPIDERMAL GROWTH FACTOR RECEPTOR INHIBITOR” (Blueprint Medicines Corporation, priority 2021, published 2024).

Series [1] is described as follows: Dynamic Vapor Sorption (DVS). The format is physicochemical. As to conditions: between 2 and 95% relative humidity at 25° C. Here is the method: DVS was performed using a DVS Intrinsic 1. The sample (5-25 mg) was loaded into a sample pan, suspended from a microbalance and exposed to a humidified stream of nitrogen gas. The sample was held for a minimum of 5 min at each level and only progressed to the next humidity level if there was <0.002% change in weight between measurements (interval: 60 s) or 60 min had elapsed. The following program was used: • 1—Equilibration at 50% RH • 2—50% to 2%. (50%, 40%, 30%, 20%, 10%, and 2%) • 3—2% to 95% (2%, 10%, 20%, 30%, 40%, 50%, 60%, 70%, 80%, 90%, 95%) • 4—95% to 2% (95%, 80%, 70%, 60%, 50%, 40%, 30%, 20%, 10%, 2%) • 5—2% to 50% (2%, 10%, 20%, 30%, 40%, 50%)

Another series has as its system EGFR mutant NSCLC. As to conditions: NSCLC patients; cited from earlier work.

Some results are limits rather than exact numbers.

In series [1], `CO[C@@H]1CCN(c2nccc(Nc3cc4c(C(C)C)ccc(N5C[C@H](CS(C)(=O)=O)[C@H]5C)c4cn3)n2)C[C@@H]1F` [1:0.5 Compound (I) Semi-Succinate] registered a DVS mass change of 7.1 wt. %.

As to `C=CC(=O)Nc1cc(Nc2nccc(-c3cn(C)c4ccccc34)n2)c(OC)cc1N(C)CCN(C)C` [osimertinib], the “time within which resistance mediated by exon 20 C797 mutation (often C797S) usually develops” value in the series with EGFR mutant NSCLC is recorded as not above 10 months.

With `CO[C@@H]1CCN(c2nccc(Nc3cc4c(C(C)C)ccc(N5C[C@H](CS(C)(=O)=O)[C@H]5C)c4cn3)n2)C[C@@H]1F` [Compound (I) Freebase Form B], the DVS mass change in series [1] is 2.1 wt. %.
